From ChEMBL document CHEMBL3885881, “DrugMatrix”

Organism: Rattus norvegicus
Assay: DrugMatrix - Regimen: Daily Repeat
Assay type: toxicity, organism-based, Sprague-Dawley
Set-up: regimen Daily Repeat, gender Male, age 6-8 weeks
Conditions: in vivo, po, route oral GAVAGE, […]; for HEMOGLOBIN / LYMPHOCYTE / MEAN CORPUSCULAR HEMOGLOBIN CONCENTRATION / MEAN CORPUSCULAR VOLUME / NUCLEATED RED BLOOD CELLS / PLATELET COUNT / ABSOLUTE BASOPHIL / ABSOLUTE EOSINOPHIL / ABSOLUTE LYMPHOCYTE / ABSOLUTE MONOCYTE / ABSOLUTE SEGMENTED NEUTROPHIL / BASOPHIL / EOSINOPHIL / ERYTHROCYTE COUNT / HEMATOCRIT: tissue Blood; for ALANINE AMINOTRANSFERASE / ALBUMIN / ALKALINE PHOSPHATASE / ASPARTATE AMINOTRANSFERASE / BLOOD UREA NITROGEN / CARBON DIOXIDE / CREATINE PHOSPHOKINASE / CREATININE / LACTATE DEHYDROGENASE / TOTAL BILIRUBIN / TOTAL PROTEIN / URIC ACID: tissue Plasma
[1] = 215 mg/kg, 72 h, dose level M2, time 3 day
[2] = 215 mg/kg, 120 h, dose level M2, time 5 day
[3] = 430 mg/kg, 72 h, dose level M3, time 3 day
[4] = 430 mg/kg, 120 h, dose level M3, time 5 day
[5] = 860 mg/kg, 72 h, dose level High, time 3 day
[6] = 860 mg/kg, dose level High, time 7 day

With CC(C)OC(=O)C(C)(C)Oc1ccc(C(=O)c2ccc(Cl)cc2)cc1 [FENOFIBRATE] the HEMOGLOBIN [1] was 13.3 G/DL, the LYMPHOCYTE [1] was 89.67% and the “MEAN CORPUSCULAR HEMOGLOBIN CONCENTRATION” value [1] was 39.2 G/DL. For the same compound, the “MEAN CORPUSCULAR VOLUME” value [1] was 61.5 fL, the “NUCLEATED RED BLOOD CELLS” value [1] was 0 /100WBC and the “PLATELET COUNT” value [1] was 1279.67 x10E3/uL. For the same compound, the “ALANINE AMINOTRANSFERASE” value [1] was 84.33 u/L, the ALBUMIN [1] was 4.4 G/DL and the “ALKALINE PHOSPHATASE” value [1] was 436.33 u/L. The “ASPARTATE AMINOTRANSFERASE” value [1] was 108 u/L, the “BLOOD UREA NITROGEN” value [1] was 11.33 mg/dL and the “CARBON DIOXIDE” value [1] was 28.33 mmol/L. The “CREATINE PHOSPHOKINASE” value [1] was 307 u/L, the CREATININE [1] was 0.23 mg/dL and the “LACTATE DEHYDROGENASE” value [1] was 227 u/L. For the same compound, the “TOTAL BILIRUBIN” value [1] was 0.1 mg/dL, the “TOTAL PROTEIN” value [1] was 5.3 G/DL and the “URIC ACID” value [1] was 1.47 mg/dL. For the same compound, the “ABSOLUTE BASOPHIL” value [2] was 0 CELLS/uL, the “ABSOLUTE EOSINOPHIL” value [2] was 0 CELLS/uL and the “ABSOLUTE LYMPHOCYTE” value [2] was 6815.67 CELLS/uL. The “ABSOLUTE MONOCYTE” value [2] was 96.33 CELLS/uL, the “ABSOLUTE SEGMENTED NEUTROPHIL” value [2] was 721.33 CELLS/uL and the BASOPHIL [2] was 0%. The EOSINOPHIL [2] was 0%, the “ERYTHROCYTE COUNT” value [2] was 5.68 x10E6/uL and the HEMATOCRIT [2] was 34.5%. The HEMOGLOBIN [2] was 13.47 G/DL, the LYMPHOCYTE [2] was 90% and the “MEAN CORPUSCULAR HEMOGLOBIN CONCENTRATION” value [2] was 39.07 G/DL. For the same compound, the “MEAN CORPUSCULAR VOLUME” value [2] was 60.77 fL, the “NUCLEATED RED BLOOD CELLS” value [2] was 0 /100WBC and the “PLATELET COUNT” value [2] was 1144.67 x10E3/uL. For the same compound, the “ALANINE AMINOTRANSFERASE” value [2] was 92.67 u/L, the ALBUMIN [2] was 4.8 G/DL and the “ALKALINE PHOSPHATASE” value [2] was 542 u/L. For the same compound, the “ASPARTATE AMINOTRANSFERASE” value [2] was 108.67 u/L, the “BLOOD UREA NITROGEN” value [2] was 9 mg/dL and the “CARBON DIOXIDE” value [2] was 35.67 mmol/L. The “CREATINE PHOSPHOKINASE” value [2] was 436 u/L, the CREATININE [2] was 0.23 mg/dL and the “LACTATE DEHYDROGENASE” value [2] was 185.67 u/L. For the same compound, the “TOTAL BILIRUBIN” value [2] was 0.1 mg/dL, the “TOTAL PROTEIN” value [2] was 5.87 G/DL and the “URIC ACID” value [2] was 0.93 mg/dL. The “ABSOLUTE BASOPHIL” value [3] was 0 CELLS/uL, the “ABSOLUTE EOSINOPHIL” value [3] was 35 CELLS/uL and the “ABSOLUTE LYMPHOCYTE” value [3] was 8585.33 CELLS/uL. The “ABSOLUTE MONOCYTE” value [3] was 165.67 CELLS/uL, the “ABSOLUTE SEGMENTED NEUTROPHIL” value [3] was 847.33 CELLS/uL and the BASOPHIL [3] was 0%. The EOSINOPHIL [3] was 0.33%, the “ERYTHROCYTE COUNT” value [3] was 5.9 x10E6/uL and the HEMATOCRIT [3] was 37.27%. The LYMPHOCYTE [3] was 89.33%, the “MEAN CORPUSCULAR HEMOGLOBIN CONCENTRATION” value [3] was 38.8 G/DL and the “MEAN CORPUSCULAR VOLUME” value [3] was 63.17 fL. For the same compound, the “NUCLEATED RED BLOOD CELLS” value [3] was 0 /100WBC, the “PLATELET COUNT” value [3] was 1091.33 x10E3/uL and the “ALANINE AMINOTRANSFERASE” value [3] was 125.33 u/L. The ALBUMIN [3] was 3.57 G/DL, the “ALKALINE PHOSPHATASE” value [3] was 509.67 u/L and the “ASPARTATE AMINOTRANSFERASE” value [3] was 123.67 u/L. For the same compound, the “BLOOD UREA NITROGEN” value [3] was 12 mg/dL, the “CARBON DIOXIDE” value [3] was 25.67 mmol/L and the “CREATINE PHOSPHOKINASE” value [3] was 211 u/L. The CREATININE [3] was 0.21 mg/dL, the “LACTATE DEHYDROGENASE” value [3] was 138.33 u/L and the “TOTAL BILIRUBIN” value [3] was 0.23 mg/dL. The “TOTAL PROTEIN” value [3] was 4.8 G/DL, the “URIC ACID” value [3] was 0.57 mg/dL and the “ABSOLUTE BASOPHIL” value [4] was 0 CELLS/uL. For the same compound, the “ABSOLUTE EOSINOPHIL” value [4] was 84 CELLS/uL, the “ABSOLUTE LYMPHOCYTE” value [4] was 7042 CELLS/uL and the “ABSOLUTE MONOCYTE” value [4] was 80.5 CELLS/uL. The “ABSOLUTE SEGMENTED NEUTROPHIL” value [4] was 843.5 CELLS/uL, the BASOPHIL [4] was 0% and the EOSINOPHIL [4] was 1%. For the same compound, the “ERYTHROCYTE COUNT” value [4] was 5.34 x10E6/uL, the HEMATOCRIT [4] was 33.8% and the HEMOGLOBIN [4] was 13.3 G/DL. For the same compound, the LYMPHOCYTE [4] was 87.5%, the “MEAN CORPUSCULAR HEMOGLOBIN CONCENTRATION” value [4] was 39.35 G/DL and the “MEAN CORPUSCULAR VOLUME” value [4] was 63.4 fL. The “NUCLEATED RED BLOOD CELLS” value [4] was 0 /100WBC, the “PLATELET COUNT” value [4] was 1064.5 x10E3/uL and the “ALANINE AMINOTRANSFERASE” value [4] was 87.5 u/L. The ALBUMIN [4] was 4.65 G/DL, the “ALKALINE PHOSPHATASE” value [4] was 418.5 u/L and the “ASPARTATE AMINOTRANSFERASE” value [4] was 104.5 u/L. For the same compound, the “BLOOD UREA NITROGEN” value [4] was 13 mg/dL, the “CARBON DIOXIDE” value [4] was 27 mmol/L and the “CREATINE PHOSPHOKINASE” value [4] was 307 u/L. The CREATININE [4] was 0.31 mg/dL, the “LACTATE DEHYDROGENASE” value [4] was 104 u/L and the “TOTAL BILIRUBIN” value [4] was 0.15 mg/dL. For the same compound, the “TOTAL PROTEIN” value [4] was 5.5 G/DL, the “URIC ACID” value [4] was 0.6 mg/dL and the “ABSOLUTE BASOPHIL” value [5] was 0 CELLS/uL. The “ABSOLUTE EOSINOPHIL” value [5] was 44 CELLS/uL, the “ABSOLUTE LYMPHOCYTE” value [5] was 10937 CELLS/uL and the “ABSOLUTE MONOCYTE” value [5] was 410.5 CELLS/uL. The “ABSOLUTE SEGMENTED NEUTROPHIL” value [5] was 2833.5 CELLS/uL, the BASOPHIL [5] was 0% and the EOSINOPHIL [5] was 0.25%. For the same compound, the “ERYTHROCYTE COUNT” value [5] was 6.03 x10E6/uL, the HEMATOCRIT [5] was 37.23% and the HEMOGLOBIN [5] was 15.3 G/DL. The LYMPHOCYTE [5] was 75.75%, the “MEAN CORPUSCULAR HEMOGLOBIN CONCENTRATION” value [5] was 41.35 G/DL and the “MEAN CORPUSCULAR VOLUME” value [5] was 61.7 fL. For the same compound, the “NUCLEATED RED BLOOD CELLS” value [5] was 0 /100WBC, the “PLATELET COUNT” value [5] was 961.5 x10E3/uL and the “ALANINE AMINOTRANSFERASE” value [5] was 233.5 u/L. The ALBUMIN [5] was 4.15 G/DL, the “ALKALINE PHOSPHATASE” value [5] was 474.75 u/L and the “ASPARTATE AMINOTRANSFERASE” value [5] was 132.75 u/L. For the same compound, the “BLOOD UREA NITROGEN” value [5] was 13 mg/dL, the “CARBON DIOXIDE” value [5] was 29 mmol/L and the “CREATINE PHOSPHOKINASE” value [5] was 233.75 u/L. For the same compound, the CREATININE [5] was 0.14 mg/dL, the “LACTATE DEHYDROGENASE” value [5] was 160.5 u/L and the “TOTAL BILIRUBIN” value [5] was 0.28 mg/dL. The “TOTAL PROTEIN” value [5] was 5.55 G/DL, the “ABSOLUTE BASOPHIL” value [6] was 0 CELLS/uL and the “ABSOLUTE EOSINOPHIL” value [6] was 0 CELLS/uL. The “ABSOLUTE LYMPHOCYTE” value [6] was 6863 CELLS/uL, the “ABSOLUTE MONOCYTE” value [6] was 370.5 CELLS/uL and the “ABSOLUTE SEGMENTED NEUTROPHIL” value [6] was 5116.5 CELLS/uL. For the same compound, the BASOPHIL [6] was 0%, the EOSINOPHIL [6] was 0% and the “ERYTHROCYTE COUNT” value [6] was 6.05 x10E6/uL. It also gave an HEMATOCRIT [6] of 35.15%, an HEMOGLOBIN [6] of 13.8 G/DL and an LYMPHOCYTE [6] of 55.5%. For the same compound, the “MEAN CORPUSCULAR HEMOGLOBIN CONCENTRATION” value [6] was 39.4 G/DL, the “MEAN CORPUSCULAR VOLUME” value [6] was 57.6 fL and the “NUCLEATED RED BLOOD CELLS” value [6] was 2 /100WBC. The “PLATELET COUNT” value [6] was 1590.5 x10E3/uL, the “ALANINE AMINOTRANSFERASE” value [6] was 283.5 u/L and the ALBUMIN [6] was 3 G/DL. The “ALKALINE PHOSPHATASE” value [6] was 812 u/L, the “ASPARTATE AMINOTRANSFERASE” value [6] was 328 u/L and the “BLOOD UREA NITROGEN” value [6] was 63 mg/dL. For the same compound, the “CARBON DIOXIDE” value [6] was 25 mmol/L, the “CREATINE PHOSPHOKINASE” value [6] was 1456.5 u/L and the CREATININE [6] was 0.58 mg/dL. For the same compound, the “LACTATE DEHYDROGENASE” value [6] was 638 u/L, the “TOTAL BILIRUBIN” value [6] was 2.9 mg/dL and the “TOTAL PROTEIN” value [6] was 5.7 G/DL.
